Source: patent publication US9718825B2, “N-(4-(azaindazol-6-yl)-phenyl)-sulfonamides and their use as pharmaceuticals” (priority 2013, dated 2017)
pIC50: −log10 of the molar value. Read-outs that look alike come from different tables or passages of the source.

Assays:
[1] = target: recombinant human SGK-1 enzyme (Homo sapiens, UniProt O00141); experiment: Enzymatic activity assay: SGK-1 substrate peptide phosphorylation (Caliper lab-chip mobility shift); format: biochemical
Procedure: In one of the cellular assays, the SGK-1 dependent phosphorylation of glycogen synthase kinase 3beta (GSK3beta) in U2OS cells was measured, in another one, a functional electrophysiological assay, the SGK-1 dependent activation of epithelial Na^+ channel (ENaC) currents in A6 cell monolayers, and in another one chondrocyte hypertrophic differentiation in mouse chondrogenic ATDC5 cells.
A) Enzymatic Activity Assay
For the determination of the compound dose response, a 10 mM DMSO stock solution was diluted and tested in a ten-point, three-fold dilution series run in duplicate beginning at 30 μM final concentration. Data were analyzed using a four-parameter curve fit with a fixed minimum and maximum experimentally defined as the average positive and negative controls on each plate.

[2] = tested on: SGK-1 dependent phosphorylation of GSK3beta in U2OS cells; experiment: SGK-1 dependent phosphorylation of GSK3beta in U2OS cells overexpressing recombinant SGK-1 and GSK3beta; format: cell-based, human; conditions: Homo sapiens; U2OS cells, 6 h incubation, ratio of phosphorylated GSK3beta to total GSK3beta; read-out: IC50 values for inhibition of SGK-1 dependent phosphorylation of GSK3beta in U2OS cells
Procedure: B) Determination of the Effect on SGK-1 Dependent Phosphorylation of GSK3beta in U2OS Cells
U2OS cells were cultured in 1:1 Dulbecco modified Eagle medium/Ham's F12 and 10% heat-inactivated fetal calf serum (FCS Gold) at 37° C., 7% CO2 and 95% relative humidity. […] Cell suspension mixed with BacMam viruses was seeded in 96 well pCLEAR plates (Greiner) at 3×10^4 cells per well in 250 μl medium. […] 1 μl of a solution of the test compound at 250×final concentration was added. Cells are incubated at 37° C., 7% CO2 and 95% relative humidity. […] After removing the fixation solution, cells were permeabilised by adding 200 μl PBT (0.2% Triton X-100 in PBS) per well for 5 min. After removing PBT, cells were blocked by adding 200 μl of blocking solution (1% bovine serum albumine in PBS) per well. Blocking solution was removed and 50 μl of primary antibody (rabbit anti-phospho-GSK-3beta (Ser9), and mouse anti-GSK-3beta) were added for 1 h. […] After washing the cells 3 times with PBS, 200 μl of PBS were added. Fluorescence signals were measured with the ImageXpress MICRO (Molecular Devices).

[3] = read-out: IC50 values for inhibition of SGK-1 enzymatic activity, peptide substrate 1 μM, ATP 10 μM, 60 min at 37° C.
[4] = peptide substrate 1 μM, ATP 10 μM, 60 min at 37° C., read-out: IC50 values for inhibition of SGK-1 enzymatic activity

Sequence of recombinant human SGK-1 enzyme (O00141 whole entry, looked up): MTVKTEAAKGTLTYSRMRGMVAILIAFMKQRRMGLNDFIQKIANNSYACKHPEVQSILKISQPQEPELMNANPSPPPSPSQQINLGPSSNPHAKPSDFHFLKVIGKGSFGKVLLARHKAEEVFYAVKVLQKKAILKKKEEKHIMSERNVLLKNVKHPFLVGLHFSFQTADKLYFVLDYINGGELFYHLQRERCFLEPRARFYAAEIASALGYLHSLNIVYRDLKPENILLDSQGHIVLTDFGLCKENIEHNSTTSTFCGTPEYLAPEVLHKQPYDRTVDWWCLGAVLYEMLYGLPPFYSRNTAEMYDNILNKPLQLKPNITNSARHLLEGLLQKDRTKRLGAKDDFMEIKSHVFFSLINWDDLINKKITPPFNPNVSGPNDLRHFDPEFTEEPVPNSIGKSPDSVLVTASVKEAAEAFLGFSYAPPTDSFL

SMILES | pIC50 [1, 4] | further results
O=S(=O)(Nc1ccc(-c2nc(-c3cccnc3)c3cn[nH]c3n2)cc1)c1cc(Cl)ccc1Cl [Example 5, 2,5-Dichloro-N-[4-(4-pyridin-3-yl-1H-pyrazolo[3,4-d]pyrimidin-6-yl)-phenyl]-benzenesulfonamide] | – | pIC50 [1, 3]: > 8.92
Cc1nc(-c2ccc(NS(=O)(=O)c3cc(Cl)ccc3F)cc2)nc2[nH]ncc12 [Example 6, 5-Chloro-2-fluoro-N-[4-(4-methyl-1H-pyrazolo[3,4-d]pyrimidin-6-yl)-phenyl]-benzenesulfonamide] | – | pIC50 [2]: 5.59
COc1nc(-c2ccc(NS(=O)(=O)c3cc(Cl)ccc3F)cc2)nc2[nH]nc(N)c12 [Example 7, N-[4-(3-Amino-4-methoxy-1H-pyrazolo[3,4-d]pyrimidin-6-yl)-phenyl]-5-chloro-2-fluoro-benzenesulfonamide] | – | pIC50 [1, 3]: > 8.82
Cc1ccc(F)c(S(=O)(=O)Nc2ccc(-c3nc(O)c4cn[nH]c4n3)cc2)c1 [Example 108] | 7.60 | –
COc1ccc(C#N)c(S(=O)(=O)Nc2ccc(-c3nc(OC4CCC(O)CC4)c4c(C)n[nH]c4n3)cc2)c1 (stereo not shown) [Example 130] | 7.89 | –
O=S(=O)(Nc1ccc(-c2nc(OCC(F)(F)F)c3cn[nH]c3n2)cc1)c1cc(Cl)ccc1Cl [Example 161] | 7.72 | –
O=S(=O)(Nc1ccc(-c2nc(C3CC3)c3cn[nH]c3n2)cc1)c1ccccc1F [Example 206] | 5.96 | –
O=S(=O)(Nc1ccc(-c2nc(OC3CCNCC3(F)F)c3cn[nH]c3n2)cc1)c1cc(Cl)ccc1Cl (stereo not shown) [Example 247] | 8.19 | –
CC(C)COc1nc(-c2ccc(NS(=O)(=O)c3ccc(F)cc3Cl)cc2)nc2[nH]nc(N)c12 [Example 318] | 6.02 | –
CC(C)COc1nc(-c2ccc(NS(=O)(=O)c3cc(F)c(F)cc3Cl)cc2)nc2[nH]nc(N)c12 [Example 325] | 5.96 | –
Cc1n[nH]c2nc(-c3ccc(NS(=O)(=O)c4ccccc4F)cc3)nc(OC3CCN(C(C)C)CC3)c12 [Example 352] | 7.96 | –
Cc1n[nH]c2nc(-c3ccc(NS(=O)(=O)c4cc(Cl)ccc4C#N)cc3)nc(OCC(C)C)c12 [Example 354] | 6.96 | –
Nc1n[nH]c2nc(-c3ccc(NS(=O)(=O)c4cc(Cl)ccc4Cl)cc3)nc(OCC3CC3)c12 [Example 355] | 7.89 | –
Cc1n[nH]c2nc(-c3ccc(NS(=O)(=O)c4ccccc4F)cc3)nc(OCC(CO)CO)c12 [Example 360] | 6.96 | –
Cc1ccc(F)c(S(=O)(=O)Nc2ccc(-c3nc(OCC(F)(F)CN)c4c(C)n[nH]c4n3)cc2)c1 [Example 364] | 8.19 | –
Cc1ccc(C#N)c(S(=O)(=O)Nc2ccc(-c3nc(OCC(CO)CO)c4c(C)n[nH]c4n3)cc2)c1 [Example 371] | 8.41 | –
CCN1CCC(Oc2nc(-c3ccc(NS(=O)(=O)c4ccccc4F)cc3)nc3[nH]nc(C)c23)CC1 [Example 402] | 7.89 | –
COCCN1CCC(Oc2nc(-c3ccc(NS(=O)(=O)c4cc(F)ccc4F)cc3)nc3[nH]nc(C)c23)CC1 [Example 407] | 7.96 | –
Nc1n[nH]c2nc(-c3ccc(NS(=O)(=O)c4cc(Cl)c(F)cc4F)cc3)nc(C3CC3)c12 [Example 448, N-[4-(3-Amino-4-cyclopropyl-1H-pyrazolo[3,4-d]pyrimidin-6-yl)phenyl]-5-chloro-2,4-difluoro-benzenesulfonamide] | – | pIC50 [1, 3]: > 8.82
Cc1nc(-c2ccc(NS(=O)(=O)c3cccc(C#N)c3)cc2)nc2[nH]nc(N)c12 [Example 471] | 7.01 | –
COCCc1nc(-c2ccc(NS(=O)(=O)c3ccc(F)cc3Cl)cc2)nc2[nH]nc(N)c12 [Example 507] | 5.82 | –
COCCc1nc(-c2ccc(NS(=O)(=O)c3cc(F)c(F)cc3Cl)cc2)nc2[nH]nc(N)c12 [Example 510] | 5.82 | –
COCCc1nc(-c2ccc(NS(=O)(=O)c3ccccc3F)cc2)nc2[nH]nc(N)c12 [Example 512] | 5.82 | –
COCCc1nc(-c2ccc(NS(=O)(=O)c3cc(Cl)ccc3F)cc2)nc2[nH]nc(N)c12 [Example 525] | 7.60 | –
O=C(Nc1n[nH]c2nc(-c3ccc(NS(=O)(=O)c4cc(Cl)ccc4Cl)cc3)ncc12)c1cccc(Cl)c1Cl [Example 540] | 7.96 | –
Nc1n[nH]c2cc(-c3ccc(NS(=O)(=O)c4cc(F)cc(F)c4Cl)cc3)ncc12 [Example 557] | 7.02 | –
N#Cc1ccc(Cl)cc1S(=O)(=O)Nc1ccc(-c2cc3[nH]nc(N)c3c(C(F)(F)F)n2)cc1 [Example 570] | 8.70 | –
Nc1n[nH]c2cc(-c3ccc(NS(=O)(=O)c4cc(F)cc(F)c4Cl)cc3)nc(C(F)(F)F)c12 [Example 576] | 6.37 | –

SMILES | pIC50 [1, 4] | further results
Nc1n[nH]c2cc(-c3ccc(NS(=O)(=O)c4cccc(Cl)c4F)cc3)nc(C(F)(F)F)c12 [Example 578] | 6.37 | –
Cc1n[nH]c2cc(-c3ccc(NS(=O)(=O)c4cc(F)ccc4F)cc3)nc(OCC3CN(C(C)C)C3)c12 [Example 592] | 8.70 | –
CCCOc1nc(-c2ccc(NS(=O)(=O)c3cc(F)c(F)cc3Cl)cc2)cc2[nH]nc(N)c12 [Example 605] | 7.64 | –
CCOc1nc(-c2ccc(NS(=O)(=O)c3cc(F)c(F)cc3F)cc2)cc2[nH]nc(N)c12 [Example 613] | 7.72 | –
CCOc1nc(-c2ccc(NS(=O)(=O)c3cc(F)c(F)cc3Cl)cc2)cc2[nH]nc(N)c12 [Example 614] | 7.01 | –
Cc1n[nH]c2cc(-c3ccc(NS(=O)(=O)c4cc(Cl)ccc4Cl)cc3)nc(OC3CC(C)(C)N(C)C(C)(C)C3)c12 [Example 620] | 8.41 | –
COc1ccc(Oc2nc(-c3ccc(NS(=O)(=O)c4cc(F)ccc4F)cc3)cc3[nH]nc(C)c23)cn1 [Example 622] | 7.43 | –
COc1ccc(Oc2nc(-c3ccc(NS(=O)(=O)c4ccccc4F)cc3)cc3[nH]nc(C)c23)cn1 [Example 624] | 7.43 | –
COc1ccc(Oc2nc(-c3ccc(NS(=O)(=O)c4cc(Cl)ccc4F)cc3)cc3[nH]nc(C)c23)cn1 [Example 634] | 7.64 | –
Cc1n[nH]c2cc(-c3ccc(NS(=O)(=O)c4cc(F)cc(F)c4Cl)cc3)nc(OC3CCN(C4CCC4)CC3)c12 [Example 638] | 7.96 | –
Cc1ccc(Cl)c(S(=O)(=O)Nc2ccc(-c3cc4[nH]nc(C)c4c(OC4CC(C)(C)NC(C)(C)C4)n3)cc2)c1 [Example 648] | 8.41 | –
COc1ccc(Cl)c(S(=O)(=O)Nc2ccc(-c3cc4[nH]nc(C)c4c(Oc4ccc(OC)nc4)n3)cc2)c1 [Example 651] | 7.60 | –
COc1ccc(F)c(S(=O)(=O)Nc2ccc(-c3cc4[nH]nc(C)c4c(Oc4ccc(OC)nc4)n3)cc2)c1 [Example 653] | 7.52 | –
COc1ccc(Oc2nc(-c3ccc(NS(=O)(=O)c4cc(C)ccc4F)cc3)cc3[nH]nc(C)c23)cn1 [Example 654] | 7.43 | –
CCCOc1nc(-c2ccc(NS(=O)(=O)c3cc(Cl)ccc3Cl)cc2)cc2[nH]nc(N)c12 [Example 664] | 7.89 | –
COc1cc(Oc2nc(-c3ccc(NS(=O)(=O)c4cc(Cl)ccc4F)cc3)cc3[nH]nc(C)c23)ccn1 [Example 666] | 7.60 | –
COc1cc(Oc2nc(-c3ccc(NS(=O)(=O)c4cc(C)ccc4C#N)cc3)cc3[nH]nc(C)c23)ccn1 [Example 667] | 7.96 | –
COc1cc(Oc2nc(-c3ccc(NS(=O)(=O)c4cc(Cl)ccc4Cl)cc3)cc3[nH]nc(C)c23)ccn1 [Example 669] | 7.51 | –
COc1ccc(Cl)c(S(=O)(=O)Nc2ccc(-c3cc4[nH]nc(C)c4c(Oc4ccnc(OC)c4)n3)cc2)c1 [Example 670] | 7.60 | –
CCOc1nc(-c2ccc(NS(=O)(=O)c3cc(OC)ccc3Cl)cc2)cc2[nH]nc(C)c12 [Example 675] | 7.82 | –
CCOc1nc(-c2ccc(NS(=O)(=O)c3cc(Cl)ccc3F)cc2)cc2[nH]nc(C)c12 [Example 676] | 7.64 | –
Cc1ccc(F)c(S(=O)(=O)Nc2ccc(-c3cc4[nH]nc(C)c4c(OCCC(=O)N(C)C)n3)cc2)c1 [Example 686] | 7.96 | –
Cc1n[nH]c2cc(-c3ccc(NS(=O)(=O)c4cc(Cl)ccc4F)cc3)nc(OCCC(=O)N(C)C)c12 [Example 687] | 7.82 | –
COc1ccc(Cl)c(S(=O)(=O)Nc2ccc(-c3cc4[nH]nc(C)c4c(OCCC(=O)N(C)C)n3)cc2)c1 [Example 689] | 7.89 | –
COc1ccc(F)c(S(=O)(=O)Nc2ccc(-c3cc4[nH]nc(C)c4c(OCCC(=O)N(C)C)n3)cc2)c1 [Example 692] | 8.19 | –
Cc1n[nH]c2cc(-c3ccc(NS(=O)(=O)c4cc(Cl)ccc4F)cc3)nc(Oc3ccc(N(C)C)nc3)c12 [Example 694] | 7.60 | –
COc1ccc(Cl)c(S(=O)(=O)Nc2ccc(-c3cc4[nH]nc(C)c4c(Oc4ccc(N(C)C)nc4)n3)cc2)c1 [Example 699] | 7.60 | –
